The numbers were not newly measured in US11357779B2 (G1 Therapeutics, Inc., priority 2018, dated 2022), which cites them from elsewhere.

Each structure is given as a SMILES string.

In the data set the test system is tumor. The conditions noted are these: mice, single dosage of 100 mg/kg; cited from earlier work.

As to `CC(C)N1CCN(c2ccc(Nc3ncc4cc5n(c4n3)C3(CCCCC3)CNC5=O)nc2)CC1` [Compound I, 2′-((5-(4-isopropylpiperazin-1-yl)pyridin-2-yl)amino)-7′,8′-dihydro-6′H-spiro[cyclohexane-1,9′-pyrazino[1′,2′:1,5]pyrrolo[2,3-d]pyrimidin]-6′-one], the distribution to tumor entry is listed as “concentrates in the tumor”.
